One may read the inhibition in vivo as the share of the control response that was lost under treatment. The low end stands for a response near the control, the high end for a response far below the control. A word on the IC50: it is the midpoint of a concentration-inhibition curve. A higher IC50 goes with a need for much substance. For orientation: LD50 means the dose at which mortality reaches 50%.

Data set [1] deals with cholesterol in serum. The experiment in a line: Effect of reducing lipid level in blood: percent inhibition of cholesterol in serum of hamsters fed 1% cholesterol and 0.5% cholic acid diet. The following applies: Mesocricetus auratus, po, 120 h, orally once a day for 5 days, relative to control group. The format is in vivo, Male golden Syrian hamsters. The procedure: The effect of reducing a lipid level in blood by the action of the compounds according to the present invention was determined as follows:
Male golden Syrian hamsters weighing from 80 to 100 g were randomly divided into groups. The hamsters were first fed standard laboratory diets (solid feed MF-1 for mouse/rat/hamster, manufactured by Oriental Yeast Industries, KK) for 3 days. Then, they were fed the experimental diet containing 1% cholesterol and 0.5% cholic acid (manufactured by Oriental Yeast Industries, KK), ad libitum. At the same time, the compounds of the invention formulated in a shown dose (25 mg or 50 mg/10 ml water/kg) were administrated to the animals orally once a day at a determined time for 5 days. Water was administrated orally to the hamsters of control group in an amount of 10 ml per 1 kg of body weight. After five days of administrating the compounds, they were anesthetized with Pentobarbital Na (Nembutal injection, manufactured by Dainabbot) and three hours after the final administration of the test compound, a blood samples (2-3 ml) was taken from abdominal cava. The serum was separated by centrifuging.
The cholesterol level in the serum was determined by using a blood cholesterol measuring kit, Determina-TC5 manufactured by Kyowa Medix Co. The results are represented by percent inhibition (%) of cholesterol level in serum relative to that of the control group, and shown in the following Table 4, each compound number corresponding to that in the above Table 3.

Data set [2] concerns the target ACAT (acyl coenzyme cholesterol acyltransferase). Nature of the data set: ACAT inhibitory action in hamster microsomes (cholesteryl-[14C] oleate formation). In kind it is biochemical. The following applies: radio-labelled oleoyl coenzyme A. As for the experimental part: The ACAT inhibitory action of the compounds according to the present invention was measured as follows:
ACAT activity in the hamster microsomes was determined by measuring the rate of radio-active cholesteryl-[^14 C] oleate formation from cholesterol and radio-labelled oleoyl coenzyme A (^14 C) with or without test compound.
Calculations of IC50 value were made using data of the percent inhibition at each compound concentration. The results are shown in the following Table 5, each compound number corresponding to that in Table 3.

Data set [3] in a line: Acute toxicity test. The following applies: rat, in vivo, po; P.O., suspended in 1% tragacanth solution, SD male and female rats, seven day observation. From the text: A compound according to the present invention suspended in a 1% tragacanth solution was administrated orally to SD male and female rats. Then, the number of fatal rats was counted during seven day observation. The LD50 value is shown in the following Table 6, the compound number corresponding to that in the above Table 3.

The test system of data set [4] is cholesterol in serum. Nature of the data set: Effect of reducing lipid level in blood: percent inhibition of cholesterol in serum of hamsters fed 1% cholesterol and 0.5% cholic acid diet. The format is in vivo, Male golden Syrian hamsters. The following applies: Mesocricetus auratus, po, 120 h, orally once a day for 5 days, relative to control group. This is another data set of the same source.

Bounds are passed on as bounds.

Consider `CCCCCCCCc1ccc(NC(=O)Nc2c(Cl)cccc2Cl)cc1` [Compound No. 2, 1-(4-octylphenyl)-3-(2,6-dichlorophenyl)urea], for which the inhibition in vivo at 25 mg/kg in data set [1] was determined as 49%.
In data set [1], `CCCCCCCCc1ccc(NC(=O)Nc2c(C(C)C)cccc2C(C)C)cc1` [Compound No. 8] came in with an inhibition in vivo at 25 mg/kg of 55%. Moreover, in data set [2], the IC50 was determined as 0.004 µM. The same compound had an LD50 at 168 h in data set [3] greater than 2000 mg/kg. Moreover, in data set [4], 5 mg/kg produced 35% inhibition in vivo.
In the case of `CCCCCCCCCc1ccc(NC(=O)Nc2c(C(C)C)cccc2C(C)C)cc1` [Compound No. 19, 1-(4-nonylphenyl)-3-(2,6-diisopropylphenyl)urea], the inhibition in vivo at 25 mg/kg in data set [1] came out at 64%. The compound also displayed an IC50 in data set [2] of 0.01 µM.
`CC(C)c1cccc(C(C)C)c1NC(=O)Nc1ccc(C(C)(C)C)cc1` [Compound No. 26, reference compound] came in with an inhibition in vivo at 25 mg/kg in data set [1] of 19%.
Take `CCCCCCCCc1ccc(NC(=O)Nc2c(Br)cccc2Br)cc1` [compound 4]: the inhibition in vivo at 25 mg/kg in data set [1] was found to be 55%.
In the case of `CCCCCCCCc1ccc(NC(=O)Nc2c(C)cccc2C)cc1` [compound 5], 25 mg/kg produced 44% inhibition in vivo in data set [1].
In turn, `CCCCCCCCc1ccc(NC(=O)Nc2c(CC)cccc2CC)cc1` [compound 7] had an inhibition in vivo at 25 mg/kg in data set [1] of 48%.
`CCCCCCCCc1ccc(NC(=O)Nc2c(Cl)ccc(C)c2Cl)cc1` [compound 11]: the inhibition in vivo at 25 mg/kg in data set [1] stood at 47%.
On the same count and under the same terms, next, `CCCCCCCCc1ccc(NC(=O)Nc2c(OC)cccc2OC)cc1` [compound 12]: 54%.
The same measure, in the same setting: next, `CCCCCCCCc1ccccc1NC(=O)Nc1c(C(C)C)cccc1C(C)C` [compound 13]: 54%; `CCCCCc1ccc(NC(=O)Nc2c(C(C)C)cccc2C(C)C)cc1` [compound 16]: 34%.
In data set [1], `CCCCCCc1ccc(NC(=O)Nc2c(C(C)C)cccc2C(C)C)cc1` [compound 17] showed an inhibition in vivo at 25 mg/kg of 60%. Besides, in data set [2], the IC50 turned out to be 0.011 µM.
Consider `CCCCCCCc1ccc(NC(=O)Nc2c(C(C)C)cccc2C(C)C)cc1` [compound 18], for which testing at 25 mg/kg in data set [1] gave an inhibition in vivo of 49%. Also, in data set [2], the IC50 was determined as 0.006 µM.
`CCCCCCCCCCc1ccc(NC(=O)Nc2c(C(C)C)cccc2C(C)C)cc1` [compound 20] showed an inhibition in vivo at 25 mg/kg in data set [1] of 59%. The compound further had an IC50 in data set [2] of 0.012 µM.

The values are drawn from patent US5063247A, “Diphenylurea derivatives” (Mitsubishi Kasei Corporation, priority 1989, dated 1991).
